In patent US9872495B2, “Peptoid oligomers, pharmaceutical compositions and methods of using the same” (priority 2009, dated 2018):
Values after ≈ are worked out from the molar mass of the structure shown. Square brackets hold non-standard residues; d marks the D form. Peptide text beside a SMILES is read from it. Gly(N(CH2)3NH2) = NCCCNCC(=O)O; Nphe = O=C(O)CNCc1ccccc1

Key:
fresh human erythrocytes = assay: Hemolytic activity; assay type: cell-based; conditions: red cells of human
Protocol: Typically, toxicity is evaluated by hemolytic concentration50 (HC50), which measures the concentration of antimicrobial agents at which 50% of the erythrocytes in the culture are lysed. Significant hemolysis, as evaluated by HC50, was detectable only for peptide gramicidin S (40 μg/mL). […] In order to test hemolytic activity of peptoid oligomers further, more stringent parameters were used. Instead of HC50, hemolytic concentration10 (HC10) was used to evaluate hemolytic activity of peptoids used in this study. HC10 represents the concentration of antimicrobial agents where 10% of erythrocytes are lysed. HC10 values were detectable for only four peptoid oligomers. […] Antimicrobial activity was tested against the gram-negative strain Escherichia coli ATCC 25922, and […] strains Staphylococcus aureus ATCC 25923, and Bacillus subtilis ATCC 6633, according to the guidelines given in the document […]-A7 of the CLSI (Clinical and Laboratory Standards Institute; Clinical and Laboratory Standards Institute. Methods for Dilution Antimicrobial Susceptibility Tests for Bacteria That Grow Aerobically-Seventh Edition: Approved Standard CLSI document […]-A7. CLSI, Wayne, USA, 2006). This reference is incorporated herein in its entirety. Hemolytic activity was tested against fresh human erythrocytes.

[1] = tested on: Staphylococcus aureus ATCC 25923; assay type: cell-based; conditions: ATCC 25923
Protocol: (§1) Antimicrobial activity was tested against the gram-negative strain Escherichia coli ATCC 25922, and […] strains Staphylococcus aureus ATCC 25923, and Bacillus subtilis ATCC 6633, according to the guidelines given in the document […]-A7 of the CLSI (Clinical and Laboratory Standards Institute; Clinical and Laboratory Standards Institute. Methods for Dilution Antimicrobial Susceptibility Tests for Bacteria That Grow Aerobically-Seventh Edition: Approved Standard CLSI document […]-A7. CLSI, Wayne, USA, 2006). This reference is incorporated herein in its entirety. Hemolytic activity was tested against fresh human erythrocytes.

[2] = tested on: Escherichia coli ATCC 25922; assay type: cell-based; conditions: ATCC 25922
Protocol: as §1

[3] = tested on: Bacillus subtilis ATCC 6633; assay type: cell-based; conditions: ATCC 6633
Protocol: as §1

[4] = tested on: MSSA (methicillin-sensitive) and MRSA (methicillin-resistant) S. aureus strains; assay type: cell-based, Staphylococcus aureus
Protocol: Experimental Design: • Twelve strains of MSSA (methicillin-sensitive) and MRSA (methicillin-resistant) S. aureus were cross-tested against two antibacterial peptoid oligomers.
[drawing 50] • Testing was accomplished with 96-well plates wherein each well contained LB media, the S. aureus strain, and a solution of the compound in ethanol at a specific concentration. • A twofold serial dilution of each compound was accomplished with pure ethanol starting from 0.5 mg/mL to 0.0039 mg/mL. • To determine the appropriate concentration of the bacterial strain for each well, the previously grown (overnight in LB media) cultures were diluted with LB media until the optical density at 595 nm (OD595˜OD600) was ˜0.005. • Each experiment was conducted in triplicate, e.g. testing of “Newman” S. aureus strain against a specific concentration of C(NapNdp)3 was replicated in three wells. • Control experiments were also conducted in absence of the compound, i.e. the plates contained only the bacterial strain, LB media, and ethanol. • The plates were incubated and gently shaken overnight (20 hours) at 37° C., and OD595 was read before (t=0) and after (t=20) incubation.
Specifically, along a dilution sequence, the well with the least OD595 after subtraction was determined to be the MIC.

Structure (SMILES) | HC10 (concentration where 10% hemolysis is observed) (fresh human erythrocytes) [µg/mL] | HC50 (concentration where 50% hemolysis is observed) (fresh human erythrocytes) [µg/mL] | MIC S. aureus [1] [mg/L] | MIC E. coli [2] [mg/L] | MIC B. sub [3] [mg/L] | activity across strains of Staphylococcus aureus (in words) ([4]; clinical, community-acquired, and hospital strains, methicillin-sensitive and methicillin-resistant) | MIC against Staphylococcus aureus strain ([4]; methicillin-sensitive) and (methicillin-resistant) strains) [mg/L]
NCCCN1CC(=O)N(CCCN)CC(=O)N(Cc2ccccc2)CC(=O)N(CCCN)CC(=O)N(Cc2ccccc2)CC(=O)N(CCCN)CC1=O [Compound 22, C(NapNpm)2Nap2] (cyclo([Nphe][Gly(N(CH2)3NH2)][Nphe][Gly(N(CH2)3NH2)][Gly(N(CH2)3NH2)][Gly(N(CH2)3NH2)])) | >250 | >250 | >500 | >500 | >500 |  | 
CC(=O)N(CCCN)CC(=O)N(CC(=O)N(CCCN)CC(=O)N(CC(=O)N(CCCN)CC(=O)N(CC(N)=O)CC(c1ccccc1)c1ccccc1)CC(c1ccccc1)c1ccccc1)CC(c1ccccc1)c1ccccc1 [Compound 4, Ac(NapNdp)3] | >62.5 | >250 | 15.6 (≈ 14 µM) | 15.6 (≈ 14 µM) | 1 (≈ 0.898 µM) | active | 15.6 (≈ 14 µM)
NCCCN1CC(=O)N(CC(c2ccccc2)c2ccccc2)CC(=O)N(CCCN)CC(=O)N(CC(c2ccccc2)c2ccccc2)CC(=O)N(CCCN)CC(=O)N(CC(c2ccccc2)c2ccccc2)CC1=O [Compound 20, C(NapNdp)3] | >31.3 | >250 | 7.8 (≈ 7.4 µM) | 15.6 (≈ 14.8 µM) | 1 (≈ 0.948 µM) |  | 
